Results taken from patent US20250145665A1, “MACROCYCLIC PEPTIDES USEFUL AS MODULATORS OF TNF ALPHA” (Bristol-Myers Squibb Company, priority 2023, published 2025).
pIC50: −log10 of the molar value. Starred links: 1 amine or outer side, 2 acyl side, 3 side chain; linkers in the order of their positions; H or OH if unused. Positions of bridges follow the written chain, without caps; N, C: chain ends. Non-standard residues stand in square brackets, D forms with d. Residues, ends and D or L forms follow the SMILES beside them. ξ: configuration not given here. *: point of attachment. Bip(4'-(3-HOOC-benzamido)) = N[C@@H](Cc1ccc(-c2ccc(NC(=O)c3cccc(C(=O)O)c3)cc2)cc1)C(=O)O; X2 = O=C(O)c1ccc(CNC(=O)c2cccc(-c3ccc(C[C@H](N[*:1])C(=O)[*:2])cc3)c2)cc1; X5 = Cn1nc(C(=O)Nc2ccc(-c3ccc(C[C@H](N[*:1])C(=O)[*:2])cc3)cc2)c2ccccc21; Bip(4'-NH) = O=C([C@H](Cc1ccc(-c2ccc(N[*:3])cc2)cc1)N[*:1])[*:2]; X14 = O=C([C@H](Cc1ccc(-c2cccc(C(=O)[*:3])c2)cc1)N[*:1])[*:2]; Bip(4'-COOH) = N[C@@H](Cc1ccc(-c2ccc(C(=O)O)cc2)cc1)C(=O)O; Bip(4'-NHAc) = CC(=O)Nc1ccc(-c2ccc(C[C@H](N)C(=O)O)cc2)cc1; Ala(morpholin-4-yl) = N[C@@H](CN1CCOCC1)C(=O)O; Benzoyl(3-OCH2COOH) = O=C(O)COc1cccc(C(=O)*)c1; X85 = N=C(N)c1cccc(C[C@H](N[*:1])C(=O)[*:2])c1; Benzoyl(4-Ph) = O=C(c1ccc(-c2ccccc2)cc1)*; Bip = N[C@@H](Cc1ccc(-c2ccccc2)cc1)C(=O)O; Ala(2-furyl) = N[C@@H](Cc1ccco1)C(=O)O; Ala(4-THP) = N[C@@H](CC1CCOCC1)C(=O)O; X15 = O=C(O)c1cccc(Oc2ccccc2N*)c1; 2Pal = N[C@@H](Cc1ccccn1)C(=O)O; Cha = N[C@@H](CC1CCCCC1)C(=O)O; Chg = N[C@H](C(=O)O)C1CCCCC1; Tle = CC(C)(C)[C@H](N)C(=O)O; ξV = CC(C)C(N)C(=O)O; Sar = CNCC(=O)O

Target: TNFα (Homo sapiens, UniProt P01375)
Sequence (P01375 77-233 limits assumed): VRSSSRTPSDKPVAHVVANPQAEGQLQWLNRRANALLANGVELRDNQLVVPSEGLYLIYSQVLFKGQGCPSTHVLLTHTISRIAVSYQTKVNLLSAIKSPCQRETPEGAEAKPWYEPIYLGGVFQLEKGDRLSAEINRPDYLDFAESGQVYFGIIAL
Test: TNF-Induced HEK-Blue Assay
Assay type: cell-based
Conditions: HEK-Blue-CD40L cells, NF-kB-driven secreted alkaline phosphatase reporter; TNFα 0.5 ng/ml; 18 h; read-out: TNF induced HEK-Blue assay IC50 value

pIC50	Structure (SMILES)
> 7.30	CC[C@H](C)[C@@H]1NC(=O)[C@@H]2CCCN2C(=O)[C@H]([C@@H](C)CC)NC(=O)[C@@H](CCCNC(=N)N)NC(=O)[C@H](CC(=O)O)NC(=O)[C@H](Cc2ccccn2)NC(=O)CN(C)C(=O)[C@H](Cc2ccc(-c3ccc(NC(C)=O)cc3)cc2)NC(=O)[C@H](Cc2ccc(-c3ccccc3)cc2)NC(=O)[C@H](C(C)(C)C)NC(=O)CSC[C@@H](C(=O)NCC(N)=O)NC(=O)[C@H](CC(C)C)NC(=O)[C@H](Cc2cccc(C(=N)N)c2)NC1=O [Example 297] ({CH2CO}-[Tle][Bip][Bip(4'-NHAc)][Sar][2Pal]D[dR]IPI[X85]LCG-NH2; thioether N-13)
6.70 to 7.30	CC[C@H](C)[C@@H]1NC(=O)[C@@H]2CCCN2C(=O)[C@H]([C@@H](C)CC)NC(=O)[C@@H](CCCNC(=N)N)NC(=O)[C@H](CC(=O)O)NC(=O)[C@H](Cc2ccco2)NC(=O)CN(C)C(=O)[C@H](Cc2ccc(-c3ccc(NC(C)=O)cc3)cc2)NC(=O)[C@H](Cc2ccc(-c3ccccc3)cc2)NC(=O)[C@H](C(C)(C)C)NC(=O)CSC[C@@H](C(=O)NCC(N)=O)NC(=O)[C@H](CC(C)C)NC(=O)[C@H](Cc2ccc(O)cc2)NC1=O [Example 298] ({CH2CO}-[Tle][Bip][Bip(4'-NHAc)][Sar][Ala(2-furyl)]D[dR]IPIYLCG-NH2; thioether N-13)
6.70 to 7.30	CC(=O)Nc1ccc(-c2ccc(C[C@@H]3NC(=O)[C@H](Cc4ccc(-c5ccccc5)cc4)NC(=O)[C@H](CC4CCCCC4)NC(=O)CSC[C@@H](C(=O)NCC(N)=O)NC(=O)[C@H](CC(C)C)NC(=O)[C@H](Cc4cnc[nH]4)NC(=O)[C@H](C4CCCCC4)NC(=O)[C@@H]4CCCN4C(=O)[C@H](CC(N)=O)NC(=O)[C@@H](CCCNC(=N)N)NC(=O)[C@H](CC(=O)O)NC(=O)[C@H](Cc4cnc[nH]4)NC(=O)CN(C)C3=O)cc2)cc1 [Example 301] ({CH2CO}-[Cha][Bip][Bip(4'-NHAc)][Sar]HD[dR]NP[Chg]HLCG-NH2; thioether N-13)
> 7.30	CC[C@H](C)[C@@H]1NC(=O)[C@@H](CCCNC(=N)N)NC(=O)[C@H](CC(=O)O)NC(=O)[C@H](Cc2cnc[nH]2)NC(=O)CN(C)C(=O)[C@H](Cc2ccc(-c3ccc(NC(=O)c4cccc(C(=O)O)c4)cc3)cc2)NC(=O)[C@H](Cc2ccc(-c3ccccc3)cc2)NC(=O)[C@H](CC2CCCCC2)NC(=O)CSC[C@@H](C(=O)NCC(N)=O)NC(=O)[C@H](CC(C)C)NC(=O)[C@H](Cc2cnc[nH]2)NC(=O)[C@H](C(C)C)NC(=O)[C@@H]2CCCN2C1=O [Example 305] ({CH2CO}-[Cha][Bip][Bip(4'-(3-HOOC-benzamido))][Sar]HD[dR]IPVHLCG-NH2; thioether N-13)
> 7.30	CC[C@H](C)[C@@H]1NC(=O)[C@@H](CCCNC(=N)N)NC(=O)[C@H](CC(=O)O)NC(=O)[C@H](Cc2cnc[nH]2)NC(=O)CN(C)C(=O)[C@H](Cc2ccc(-c3ccc(NC(=O)c4cccc(OCC(=O)O)c4)cc3)cc2)NC(=O)[C@H](Cc2ccc(-c3ccccc3)cc2)NC(=O)[C@H](CC2CCCCC2)NC(=O)CSC[C@@H](C(=O)NCC(N)=O)NC(=O)[C@H](CC(C)C)NC(=O)[C@H](Cc2cnc[nH]2)NC(=O)[C@H](C(C)C)NC(=O)[C@@H]2CCCN2C1=O [Example 308] ({CH2CO}-[Cha][Bip][Bip(4'-NH)](Benzoyl(3-OCH2COOH))[Sar]HD[dR]IPVHLCG-NH2; thioether N-13)

Second part, the compound before the results:

Structure (SMILES)	pIC50
CC[C@H](C)[C@@H]1NC(=O)[C@@H]2CCCN2C(=O)[C@H]([C@@H](C)CC)NC(=O)[C@@H](CCCNC(=N)N)NC(=O)[C@H](CC(=O)O)NC(=O)[C@H](Cc2ccc(O)cc2)NC(=O)CN(C)C(=O)[C@H](Cc2ccc(-c3ccc(NC(C)=O)cc3)cc2)NC(=O)[C@H](Cc2ccc(-c3ccccc3)cc2)NC(=O)[C@H](C(C)(C)C)NC(=O)CSC[C@@H](C(=O)NCC(N)=O)NC(=O)[C@H](CC(C)C)NC(=O)[C@H](Cc2ccccc2)NC1=O [Example 296] ({CH2CO}-[Tle][Bip][Bip(4'-NHAc)][Sar]YD[dR]IPIFLCG-NH2; thioether N-13)	> 7.30
CC[C@H](C)[C@@H]1NC(=O)[C@@H]2CCCN2C(=O)[C@H]([C@@H](C)CC)NC(=O)[C@@H](CCCNC(=N)N)NC(=O)[C@H](CC(=O)O)NC(=O)[C@@H]2CCCN2C(=O)CN(C)C(=O)[C@H](Cc2ccc(-c3ccc(NC(C)=O)cc3)cc2)NC(=O)[C@H](Cc2ccc(-c3ccc(C(=O)O)cc3)cc2)NC(=O)[C@H](C(C)(C)C)NC(=O)CSC[C@@H](C(=O)NCC(N)=O)NC(=O)[C@H](CC(C)C)NC(=O)[C@H](Cc2ccc(O)cc2)NC1=O [Example 300] ({CH2CO}-[Tle][Bip(4'-COOH)][Bip(4'-NHAc)][Sar]PD[dR]IPIYLCG-NH2; thioether N-13)	6.70 to 7.30
CC(C)C[C@@H]1NC(=O)[C@H](CCCNC(=N)N)NC(=O)C(C(C)C)NC(=O)[C@@H]2CCCN2C(=O)[C@H](C(C)C)NC(=O)[C@@H](CCCNC(=N)N)NC(=O)[C@H](CC(=O)O)NC(=O)[C@@H]2CCCN2C(=O)CN(C)C(=O)[C@H](Cc2ccc(-c3cccc(C(=O)NCc4ccc(C(=O)O)cc4)c3)cc2)NC(=O)[C@H](Cc2ccc(-c3ccccc3)cc2)NC(=O)[C@H](CC2CCOCC2)NC(=O)CSC[C@@H](C(=O)NCC(N)=O)NC1=O (some centres unmarked) [Example 303] ({CH2CO}-[Ala(4-THP)][Bip][X2][Sar]PD[dR]VP[ξV]RLCG-NH2; thioether N-13)	5.70 to 6.70
CC(C)C[C@@H]1NC(=O)[C@H](CCCNC(=N)N)NC(=O)[C@H](C(C)C)NC(=O)[C@@H]2CCCN2C(=O)[C@H](C(C)C)NC(=O)[C@@H](CCCNC(=N)N)NC(=O)[C@H](CC(=O)O)NC(=O)[C@@H]2CCCN2C(=O)CN(C)C(=O)[C@H](Cc2ccc(-c3ccc(NC(=O)c4nn(C)c5ccccc45)cc3)cc2)NC(=O)[C@H](Cc2ccc(-c3ccccc3)cc2)NC(=O)[C@H](CC2CCOCC2)NC(=O)CSC[C@@H](C(=O)NCC(N)=O)NC1=O [Example 304] ({CH2CO}-[Ala(4-THP)][Bip][X5][Sar]PD[dR]VPVRLCG-NH2; thioether N-13)	> 7.30
CC(C)C[C@@H]1NC(=O)[C@H](CCCNC(=N)N)NC(=O)[C@H](C(C)C)NC(=O)[C@@H]2CCCN2C(=O)[C@H](C(C)C)NC(=O)[C@@H](CCCNC(=N)N)NC(=O)[C@H](CC(=O)O)NC(=O)[C@@H]2CCCN2C(=O)CN(C)C(=O)[C@H](Cc2ccc(-c3cccc(C(=O)Nc4ccccc4Oc4cccc(C(=O)O)c4)c3)cc2)NC(=O)[C@H](Cc2ccc(-c3ccccc3)cc2)NC(=O)[C@H](CN2CCOCC2)NC(=O)CSC[C@@H](C(=O)NCC(N)=O)NC1=O [Example 306] ({CH2CO}-[Ala(morpholin-4-yl)][Bip][X14](X15)[Sar]PD[dR]VPVRLCG-NH2; thioether N-13)	6.70 to 7.30
CC[C@H](C)[C@@H]1NC(=O)[C@@H](CCCNC(=N)N)NC(=O)[C@H](CC(=O)O)NC(=O)[C@H](Cc2cnc[nH]2)NC(=O)CN(C)C(=O)[C@H](Cc2ccc(-c3ccc(NC(=O)c4ccc(-c5ccccc5)cc4)cc3)cc2)NC(=O)[C@H](Cc2ccc(-c3ccccc3)cc2)NC(=O)[C@H](CC2CCCCC2)NC(=O)CSC[C@@H](C(=O)NCC(N)=O)NC(=O)[C@H](CC(C)C)NC(=O)[C@H](Cc2cnc[nH]2)NC(=O)[C@H](C(C)C)NC(=O)[C@@H]2CCCN2C1=O [Example 307] ({CH2CO}-[Cha][Bip][Bip(4'-NH)](Benzoyl(4-Ph))[Sar]HD[dR]IPVHLCG-NH2; thioether N-13)	6.70 to 7.30
